The values below come from patent publication US9951021B2, “Compounds for inhibiting c-Myc/Max/DNA complex formation” (NATIONAL CANCER CENTER, priority 2016, dated 2018).

Where only a bound is given, the exact number is not on record here.

As usually defined, the IC50 is the concentration at which inhibition is half-maximal.

The experiment deals with T1, recombinant c-Myc/Max (Homo sapiens, UniProt P01106+P61244).
T1 construct: made in house
T1 sequence (P01106 whole entry): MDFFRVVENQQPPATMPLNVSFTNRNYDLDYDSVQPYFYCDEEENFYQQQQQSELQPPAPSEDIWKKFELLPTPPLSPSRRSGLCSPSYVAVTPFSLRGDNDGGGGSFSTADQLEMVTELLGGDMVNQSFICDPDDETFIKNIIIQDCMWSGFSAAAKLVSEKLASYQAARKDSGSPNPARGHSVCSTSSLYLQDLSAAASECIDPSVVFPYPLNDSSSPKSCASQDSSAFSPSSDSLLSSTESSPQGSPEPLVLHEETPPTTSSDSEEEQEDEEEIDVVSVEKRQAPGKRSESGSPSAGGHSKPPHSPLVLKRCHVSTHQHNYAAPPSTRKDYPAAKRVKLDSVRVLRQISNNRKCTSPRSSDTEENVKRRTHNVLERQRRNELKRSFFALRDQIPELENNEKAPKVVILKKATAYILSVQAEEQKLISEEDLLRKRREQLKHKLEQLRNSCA
T1 sequence (P61244 whole entry): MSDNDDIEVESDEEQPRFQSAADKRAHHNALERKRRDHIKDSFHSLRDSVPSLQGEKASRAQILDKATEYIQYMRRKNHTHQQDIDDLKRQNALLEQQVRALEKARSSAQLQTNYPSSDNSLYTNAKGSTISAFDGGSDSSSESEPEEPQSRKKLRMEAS
The experiment in a line: Electrophoretic mobility shift assay (EMSA): inhibitory activity on DNA binding of recombinant c-Myc/Max. Particulars: read-out: protein assay IC50. How it is done: 1) Preparation of Recombinant c-Myc and Max Proteins
Recombinant proteins were prepared as described in the following references: K. C. Jung et al., Fatty Acids, Inhibitors for the DNA Binding of c-Myc/Max Dimer, Suppress Proliferation and Induce Apoptosis of Differentiated HL-60 Human Leukemia Cell, Leukemia, 2006, 20(1), 122-7 or Kyung-Chae Jeong et al., Small-Molecule Inhibitors of c-Myc Transcriptional Factor Suppress Proliferation and Induce Apoptosis of Promyelocytic Leukemia Cell via Cell Cycle Arrest, Mol. BioSyst., 2010, 6, 1503-1509.
2) Electrophoretic Mobility Shift Assay (EMSA)
The inhibitory activity of each candidate compound on DNA binding of recombinant c-Myc/Max was measured using an electrophoretic mobility shift assay (EMSA). The ratio of protein-DNA complexes in each sample was evaluated by measuring band intensity. The oligonucleotides (E-box) corresponding to the consensus binding site of Myc/Max were dimerized through an annealing process. The protein mixture was incubated at room temperature for 5 minutes, and a DMSO solution containing each candidate compound was added thereto. The mixture was further incubated for 5 minutes, and the biotinylated DNA was added. To achieve a state of equilibrium, the final mixture was incubated at room temperature for 10 minutes. The protein-DNA complexes were separated from unbound free DNA by pre-electrophoresis using 8% polyacrylamide gel and 1×TBE buffer. After pre-electrophoresis, electrophoresis was performed at 120 V for 1 hour in 1×TBE buffer. Each band was visualized using HRP-conjugated streptavidin and an ECL solution, and band intensity was measured using image analysis software.
For the compound `CC(=O)c1c(S(C)(=O)=O)n(S(=O)(=O)c2ccc(C(C)(C)C)cc2)c2c(Br)ccc(Cl)c2c1=O` [Compound 41, 3-acetyl-8-bromo-1-((4-(tert-butyl)phenyl)sulfonyl)-5-chloro-2-(methylsulfonyl)quinolin-4(1H)-one], the IC50 is less than 1 µM. Then `CC(=O)c1c(SCc2ccc(Cl)cc2)[nH]c2c(Br)ccc(Cl)c2c1=O` [Compound 10, 3-acetyl-8-bromo-5-chloro-2-((4-chlorobenzyl)thio)quinolin-4(1H)-one], with less than 1 µM; and `CC(=O)c1c([S+]([O-])Cc2cccc(I)c2)[nH]c2c(Br)ccc(Cl)c2c1=O` (centres unmarked) [Compound 48, 3-acetyl-8-bromo-5-chloro-2-((3-iodobenzyl)sulfinyl)quinolin-4(1H)-one], with less than 1 µM.

As to `CC(=O)c1c(SC(C)C)[nH]c2c(Br)ccc(Cl)c2c1=O` [Compound 24, 3-acetyl-8-bromo-5-chloro-2-(isopropylthio)quinolin-4(1H)-one], the half-maximal inhibitory concentration (IC50) was less than 1 µM. Then `CC(=O)c1c([S+]([O-])Cc2ccc(C(=O)c3ccccc3)cc2)[nH]c2c(Br)ccc(Cl)c2c1=O` (centres unmarked) [Compound 63, 3-acetyl-2-((4-benzoylbenzyl)sulfinyl)-8-bromo-5-chloroquinolin-4(1H)-one], with less than 1 µM.

For the compound `CCS(=O)(=O)n1c([S+](C)[O-])c(C(C)=O)c(=O)c2c(Cl)ccc(Br)c21` (centres unmarked) [Compound 39, 3-acetyl-8-bromo-5-chloro-1-(ethylsulfonyl)-2-(methylsulfinyl)quinolin-4(1H)-one], the IC50 was less than 1 µM. Take `CC(=O)c1c([S+]([O-])Cc2ccc(Cl)nc2)[nH]c2c(Br)ccc(Cl)c2c1=O` (centres unmarked) [Compound 104, 3-acetyl-8-bromo-5-chloro-2-(((6-chloropyridin-3-yl)methyl)sulfinyl)quinolin-4(1H)-one]: the IC50 was less than 1 µM. Then `CC(=O)c1c([S+]([O-])Cc2cccc(F)c2)[nH]c2c(Br)ccc(Cl)c2c1=O` (centres unmarked) [Compound 50, 3-acetyl-8-bromo-5-chloro-2-((3-fluorobenzyl)sulfinyl)quinolin-4(1H)-one], with less than 1 µM; and `CC(=O)c1c([S+]([O-])Cc2ccc(C(C)(C)C)cc2)[nH]c2c(Br)ccc(Cl)c2c1=O` (centres unmarked) [Compound 60, 3-acetyl-8-bromo-2-((4-(tert-butyl)benzyl)sulfinyl)-5-chloroquinolin-4(1H)-one], with less than 1 µM. On to `CC(=O)c1c([S+]([O-])Cc2ccc(SC(F)(F)F)cc2)[nH]c2c(Cl)ccc(Cl)c2c1=O` (centres unmarked) [Compound 79, 3-acetyl-5,8-dichloro-2-((4-((trifluoromethyl)thio)benzyl)sulfinyl)quinolin-4(1H)-one], for which the IC50 was less than 1 µM. With `CC(=O)c1c(S/C=C\C(=O)O)[nH]c2c(Br)ccc(Cl)c2c1=O` [Compound 67, (Z)-3-((3-acetyl-8-bromo-5-chloro-4-oxo-1,4-dihydroquinolin-2-yl)thio)acrylic acid] the figure was less than 1 µM; with `CC(=O)c1c([S+]([O-])C(C)C)[nH]c2c(Br)ccc(Cl)c2c1=O` (centres unmarked) [Compound 25, 3-acetyl-8-bromo-5-chloro-2-(isopropylsulfinyl)quinolin-4(1H)-one], less than 1 µM; with `COc1ccccc1[S+]([O-])c1[nH]c2c(Br)ccc(Cl)c2c(=O)c1C(C)=O` (centres unmarked) [Compound 15, 3-acetyl-8-bromo-5-chloro-2-((2-methoxyphenyl)sulfinyl)quinolin-4(1H)-one], less than 1 µM. Consider `CC(=O)c1c([S+]([O-])Cc2ccccc2)nc2c(Br)ccc(Cl)c2c1O` (centres unmarked) [Compound 53, 1-(2-(benzylsulfinyl)-8-bromo-5-chloro-4-hydroxyquinolin-3-yl)ethan-1-one], for which the IC50 was less than 1 µM.

`CC(=O)c1c([S+]([O-])Cc2ccccc2)n(C(=O)c2ccc(Br)cc2)c2c(Br)ccc(Cl)c2c1=O` (centres unmarked) [Compound 20, 3-acetyl-2-(benzylsulfinyl)-8-bromo-1-(4-bromobenzoyl)-5-chloroquinolin-4(1H)-one]: the IC50 is less than 1 µM. Take `CC(=O)c1c([S+]([O-])c2ccccc2)[nH]c2c(Br)ccc(Cl)c2c1=O` (centres unmarked) [Compound 13, 3-acetyl-8-bromo-5-chloro-2-(phenylsulfinyl)quinolin-4(1H)-one]: the IC50 is less than 1 µM. Then `CC(=O)c1c([S+]([O-])Cc2ccc(OC(F)(F)F)cc2)[nH]c2c(Br)ccc(Cl)c2c1=O` (centres unmarked) [Compound 71, 3-acetyl-8-bromo-5-chloro-2-((4-(trifluoromethoxy)benzyl)sulfinyl)quinolin-4(1H)-one], with less than 1 µM. Regarding `COC(=O)c1ccc(C[S+]([O-])c2[nH]c3c(Cl)ccc(Cl)c3c(=O)c2C(C)=O)cc1` (centres unmarked) [Compound 91, methyl 4-(((3-acetyl-5,8-dichloro-4-oxo-1,4-dihydroquinolin-2-yl)sulfinyl)methyl)benzoate], the IC50 is less than 1 µM. Turning to `CSc1c(C(C)=O)c(=O)c2c(Cl)ccc(Br)c2n1C` [Compound 5, 3-acetyl-8-bromo-5-chloro-1-methyl-2-(methylthio)quinolin-4(1H)-one], the IC50 was less than 1 µM. As to `COc1ccccc1Sc1[nH]c2c(Br)ccc(Cl)c2c(=O)c1C(C)=O` [Compound 14, 3-acetyl-8-bromo-5-chloro-2-((2-methoxyphenyl)thio)quinolin-4(1H)-one], the IC50 is less than 1 µM. Turning to `CC(=O)c1c(SCc2ccc([N+](=O)[O-])cc2)[nH]c2c(Br)ccc(Cl)c2c1=O` [Compound 32, 3-acetyl-8-bromo-5-chloro-2-((4-nitrobenzyl)thio)quinolin-4(1H)-one], the IC50 was less than 1 µM. With `CC(=O)c1c(SCc2ccccc2)nc2c(Br)ccc(Cl)c2c1O` [Compound 52, 1-(2-(benzylthio)-8-bromo-5-chloro-4-hydroxyquinolin-3-yl)ethan-1-one] the figure was less than 1 µM; with `CC(=O)c1c([S+](C)[O-])n(Cc2ccc(F)c(Cl)c2)c2c(Br)ccc(Cl)c2c1=O` (centres unmarked) [Compound 22, 3-acetyl-8-bromo-5-chloro-1-(3-chloro-4-fluorobenzyl)-2-(methylsulfinyl)quinolin-4(1H)-one], less than 1 µM.

Turning to `Cc1cc(C[S+]([O-])c2[nH]c3c(Br)ccc(Cl)c3c(=O)c2C(=O)C(C)C)no1` (centres unmarked) [Compound 95, 8-bromo-5-chloro-3-isobutyryl-2-(((5-methylisoxazol-3-yl)methyl)sulfinyl)quinolin-4(1H)-one], the IC50 was less than 1 µM. With `CC(=O)c1c([S+](C)[O-])[nH]c2c(Br)ccc(Cl)c2c1=O` (centres unmarked) [Compound 1, 3-acetyl-8-bromo-5-chloro-2-(methylsulfinyl)quinolin-4(1H)-one] the figure was less than 1 µM; with `CC(=O)c1c(S)[nH]c2c(Br)ccc(Cl)c2c1=O` [Compound 62, 3-acetyl-8-bromo-5-chloro-2-mercaptoquinolin-4(1H)-one], less than 1 µM. Take `COc1cc(S(F)(F)(F)(F)F)ccc1C[S+]([O-])c1[nH]c2c(Br)ccc(Cl)c2c(=O)c1C(C)=O` (centres unmarked) [Compound 75, 3-acetyl-8-bromo-5-chloro-2-((2-methoxy-4-(pentafluoro-λ6-sulfanyl)benzyl)sulfinyl)quinolin-4(1H)-one]: the IC50 is less than 1 µM.

As to `Cc1cc(C[S+]([O-])c2[nH]c3c(Cl)ccc(Cl)c3c(=O)c2C(=O)c2ccccc2)no1` (centres unmarked) [Compound 88, 3-benzoyl-5,8-dichloro-2-(((5-methylisoxazol-3-yl)methyl)sulfinyl)quinolin-4(1H)-one], the IC50 was less than 1 µM. Then `CC(=O)c1c([S+]([O-])Cc2ccc(C(F)(F)F)nc2C)[nH]c2c(Br)ccc(Cl)c2c1=O` (centres unmarked) [Compound 102, 3-acetyl-8-bromo-5-chloro-2-(((2-methyl-6-(trifluoromethyl)pyridin-3-yl)methyl)sulfinyl)quinolin-4(1H)-one], with less than 1 µM; and `CC(=O)c1c([S+]([O-])Cc2ccc(C#N)s2)[nH]c2c(Br)ccc(Cl)c2c1=O` (centres unmarked) [Compound 98, 5-(((3-acetyl-8-bromo-5-chloro-4-oxo-1,4-dihydroquinolin-2-yl)sulfinyl)methyl)thiophene-2-carbonitrile], with less than 1 µM. Then `CSc1[nH]c2ccc(F)cc2c(=O)c1C(C)=O` [Compound 8, 1-(6-fluoro-4-hydroxy-2-(methylthio)quinolin-3-yl)ethan-1-one], with less than 1 µM. Turning to `CC(=O)c1c(SCc2cc(Cl)ccc2Cl)[nH]c2c(Br)ccc(Cl)c2c1=O` [Compound 43, 3-acetyl-8-bromo-5-chloro-2-((2,5-dichlorobenzyl)thio)quinolin-4(1H)-one], the IC50 was less than 1 µM. `CSc1c(C(C)=O)c(=O)c2c(Cl)ccc(Br)c2n1C(C)=O` [Compound 18, 1,1′-(8-bromo-5-chloro-2-(methylthio)-4-oxoquinoline-1,3(4H)-diyl)bis(ethan-1-one)]: the 50% inhibitory concentration (IC50) is less than 1 µM.

Consider `CC(=O)c1c([S+]([O-])CC#N)[nH]c2c(Br)ccc(Cl)c2c1=O` (centres unmarked) [Compound 65, 2-((3-acetyl-8-bromo-5-chloro-4-oxo-1,4-dihydroquinolin-2-yl)sulfinyl)acetonitrile], for which the half-maximal inhibitory concentration (IC50) is less than 1 µM. Take `CC(=O)c1c(SCC#N)[nH]c2c(Br)ccc(Cl)c2c1=O` [Compound 66, 2-((3-acetyl-8-bromo-5-chloro-4-oxo-1,4-dihydroquinolin-2-yl)thio)acetonitrile]: the concentration for half-maximal inhibition (IC50) was less than 1 µM.
